Laboratory results from patent US8476290B2, “Compound having spiro-bonded cyclic group and use thereof” (Ono Pharmaceutical Co., Ltd., priority 2009, dated 2013).

Key:
[1] = Blood kinetic test and time (T90) to maintain the IC90 value; format: in vivo, Crl:CD(SD) Rat; conditions: time the plasma concentration stays at the PBMC IC90 value or more; rat, intravenous 1 mg/kg
Method: A test compound was weighed, dissolved in WellSolve (trade name; manufactured by Celeste Corporation)/water/physiological saline=1/9/10 which was heated at 60° C. and adjusted to 20 mg/mL. Thereafter, the test compound was diluted by 10 times with distilled water for injection, and further diluted by 2 times with physiological saline. Then, intravenous administration was performed by rapid single administration of an intravenously administered solution (1 mg/kg) from the tail vein of Crl:CD(SD) Rat (male, manufactured by CHARLES RIVER LABORATORIES JAPAN, INC). The administration is conducted under fasting conditions; water is freely ingested. A 0.35 mL blood sample is taken from cervical vein by using Heparinized Syringe at 5 minutes, 15 minutes, 30 minutes, 1 hour, 2 hours, 4 hours, 6 hours, 8 hours, and 24 hours after administration. The obtained blood is stored in ice, and after centrifugation at 12,000 rpm for 5 minutes, blood plasma is fractionated. An internal standard solution (100 μL) and acetonitrile (2 mL) was added to 100 μL of plasma, followed by stirring and further centrifugation at 2,500 rpm for 10 minutes. The supernatant was desiccated by a centrifugal thickener and then 150 μL of an aqueous 67% dimethyl sulfoxide solution was added to the residue thereby dissolving again the residue, and 20 μL of the resultant solution was analyzed by LC/MS/MS.
Analysis by LC/MS/MS was carried out under the following conditions.
A curve of the compound concentration in plasma versus the time of each compound was adapted to a 1 or 2 compartment model using pharmacokinetic analysis software WinNonlin (trade name) (ver4.0.1, Pharsight Corporation).

CXCR4 = molecular target: T1, CXCR4 (Homo sapiens, UniProt P61073); assay: Inhibition of binding human SDF-1 to CEM cells; conditions: 125I-SDF-1, CEM cells, 4° C., 60 minutes; read-out: concentration showing 50% of an inhibition ratio
T1 construct: a human T cell strain in which CXCR4 is known to be expressed; endogenous in cells; host or cells: CEM cells (human T cell strain)
Method: Specifically, as a system of screening a compound that inhibits the binding between SDF-1 and CXCR4, for example a system of measuring the binding between iodine-labeled SDF-1 and a human T cell strain in which CXCR4 is known to be expressed is operable.
To human T cell strain CEM cells in a binding buffer (containing 2-[4-(2-Hydroxyethyl)-1-piperadinyl]ethansulfonic acid; HEPES and BSA), the test compound and ^125I-SDF-1 (PerkinElmer) were added and the mixture was incubated at 4° C. for 60 minutes. The reacted CEM cells were rapidly filtrated with a GF/B membrane filter plate (Packard) to adsorb. The plate was washed with phosphate buffered saline (hereinafter abbreviated to PBS) three times and then dried. Microscint+20 (Packard) was added thereto. An amount of the radioactivity bound to the CEM cells was measured using Top Count (Packard) and inhibition ratio (%) of the test compound was calculated according to the following equation: Inhibition={(Et−Ea)/(Et−Ec)}×100 [Equation 2] Et: Amount of radioactivity when the test compound is not added, Ec: Amount of radioactivity when non-radioactive SDF-1 (Pepro Tech) is added in an amount of 1,000 times as much as ^125I-SDF-1 as a test compound, and Ea: Amount of radioactivity when the test compound is added.

[2] = system: CHL/IU (cell line derived from a Chinese hamster lung); assay: Phospholipid accumulation measurement (phospholipidosis induction); format: cell-based; conditions: NBD-PE, about 48 hours, at 400 μM (maximum treatment concentration); positive = 25% or more of maximum increase rate of amiodarone
Method: 100 µL/well as required (1 dose 2 wells) of cell suspension of CHL/IU (cell line derived from a Chinese hamster lung) (7×10^4 cells/mL) prepared by MEM (minimum essential medium) culture medium was added to a 96-well plate (96-well clear-bottom plate), and cultured for about 24 hours. After culture, the supernatant of the 96-well plate was removed, and the 100 μL/well compounds of each concentration dissolved and suspended in a minimum essential medium (MEM) including 25 μM nitrobenzoxazole dipalmitoyl phosphatidylethanolamine (NBD-PE) (hereinafter abbreviated to a NPD-PE medium) were added and treated for about 48 hours. The treatment concentrations of each compound were set to be 5, 50, 100, 200 and 400 μM. The positive control substance was set to be amiodarone hydrochloride, and the treatment concentrations were set to be 1.25, 2.5, 5, 10 and 20 μM. In addition, 5-well untreated controls (only MEM) and 5-well NBD-PE controls (made by means of adding a 1/100 amount of DMSO to the NBD-PE culture medium) were set per compound, and cultured in the same manner. After finishing the culture, the cultures were washed twice with PBS (−) 100 μL/well, and the MEM (100 μL) was added to all of the treatment wells including two empty wells for WST-1 background controls and cultured for about half an hour. The fluorescence intensities of each well were measured by using a microplate reader (manufactured by Molecular Devices Inc., SPECTRA max M2; the excitation wavelength 485 nm/fluorescence wavelength 535 nm). Using the average values of each dose×2 wells, a phospholipid increase rate (%) to the NBD-PE control was calculated by using the following calculating formula: Rate of increase of phospholipid accumulation (%)=100×{(test substance fluorescence intensity−non-treated control fluorescence intensity)/(NBD-PE control fluorescence intensity−non-treated control fluorescence intensity)} 3. Cytotoxicity Test 96-well plate measured in the phospholipid accumulation measurement was measured by means of Plate Reader (manufactured by Molecular Devices Inc., SPECTRA max M2) with the main wavelength of 450 nm and the correct wavelength of 690 nm to calculate a Pre value. An amount of 5 μL/well of Premix WST-1 was added to each of the 96-well plates by which Pre measurement was conducted. After culture for 2 to 4 hours, the 96-well plate was measured as well as the Pre measurement to calculate an Aft value. Then, the background control value was subtracted from the each measured value. A value which was calculated by subtracting the Pre value from the Aft value was used, then the cell growth rate (%) was calculated by using the following calculating formula: Cell growth rate (%)=100×{(test substance OD)/(NBD-PE control OD)} 4. Determination A test dose that indicated value of 25% or more of the maximum phospholipid accumulation increase rate of amiodarone which was the positive control was determined as positive. In addition, the dose whose cell growth rate was equal to or less than 50% in the cytotoxicity test was not used for determination of existence or nonexistence of a phospholipidosis inductive effect.

[3] = system: X4-HIV-1 strains (for example, HIV-1NL4.3 strains); assay: HIV infection inhibitory test using PBMC; format: cell-based; conditions: human PBMC stimulated with PHA and IL-2, culture 7 days, culture supernatant
Method: Human PBMC (peripheral blood mononuclear cells) was isolated from HIV-negative healthy persons and subjected to stimulated culture in the presence of PHA (Phytohemagulutinin) and IL-2. Stimulated PBMC was inoculated in each of 96-well microplates and X^4-HIV-1 strains (for example, HIV-1NL4.3 strains) were exposed in the co-presence of a test compound. After culturing for 7 days, a reverse transcriptase activity of HIV-1 in the culture supernatant was measured and an inhibitory ratio (%) of the test compound was calculated by the following calculation formula, and a concentration (IC90 value) showing a 90% inhibitory ratio was determined. Inhibition={(Et−Ec)/Et}×100 [Equation 1] Et: reverse transcriptase activity value in the absence of a test compound Ec: reverse transcriptase activity value in the presence of a test compound

T1 sequence (P61073 whole entry): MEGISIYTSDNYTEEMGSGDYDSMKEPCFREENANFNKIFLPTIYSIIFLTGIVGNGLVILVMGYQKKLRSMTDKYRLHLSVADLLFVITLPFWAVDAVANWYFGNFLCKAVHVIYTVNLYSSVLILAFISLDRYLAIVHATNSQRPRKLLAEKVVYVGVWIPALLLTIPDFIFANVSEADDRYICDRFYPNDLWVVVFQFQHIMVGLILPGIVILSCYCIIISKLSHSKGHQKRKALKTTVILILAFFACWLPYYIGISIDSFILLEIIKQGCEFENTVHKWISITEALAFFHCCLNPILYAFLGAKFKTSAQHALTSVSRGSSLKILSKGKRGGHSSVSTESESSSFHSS

| T90 [1] [h] | IC50 (CXCR4) [nM] | IC90 value (concentration showing a 90% inhibitory ratio of HIV-1 reverse transcriptase activity) [3] [nM] | SMILES | phospholipidosis induction activity (determination) [2] |
| --- | --- | --- | --- | --- |
| 91 | 3 | 0.27 | CCC(CC)N1CCC2(CC1)CC(C(=O)O)N(Cc1ccc(CN(Cc3ncc[nH]3)Cc3ncc[nH]3)cc1)C2 (centres unmarked) [Example 5(5), 2-(4-{[bis(1H-imidazol-2-ylmethyl)amino]methyl}benzyl)-8-(1-ethylpropyl)-2,8-diazaspiro[4.5]decane-3-carboxylic acid] | negative |
| – | 3.3 | 0.27 | CCC(CC)N1CCC2(CC1)C[C@H](C(=O)O)N(Cc1ccc(CN(Cc3ncc[nH]3)Cc3ncc[nH]3)cc1)C2 [Example 32(6), (3R)-2-(4-{[bis(1H-imidazol-2-ylmethyl)amino]methyl}benzyl)-8-(1-ethylpropyl)-2,8-diazaspiro[4.5]decane-3-carboxylic acid] | negative |
| – | 3.2 | 0.23 | CCC(CC)N1CCC2(CC1)C[C@@H](C(=O)O)N(Cc1ccc(CN(Cc3ncc[nH]3)Cc3ncc[nH]3)cc1)C2 [Example 32(7), (3S)-2-(4-{[bis(1H-imidazol-2-ylmethyl)amino]methyl}benzyl)-8-(1-ethylpropyl)-2,8-diazaspiro[4.5]decane-3-carboxylic acid] | negative |
| – | 11.3 | – | CCC(CC)N1CCC2(CC1)C[C@H](C(=O)O)N(Cc1ccc(CN(Cc3ncc[nH]3)Cc3nccn3C)cc1)C2 [Example 37(6), (3R)-8-(1-ethylpropyl)-2-[4-({(1H-imidazol-2-ylmethyl)[(1-methyl-1H-imidazol-2-yl)methyl]amino}methyl)benzyl]-2,8-diazaspiro[4.5]decane-3-carboxylic acid] | negative |
| – | 11.1 | – | CCC(CC)N1CCC2(CC1)C[C@@H](C(=O)O)N(Cc1ccc(CN(Cc3ncc[nH]3)Cc3nccn3C)cc1)C2 [Example 37(7), (3S)-8-(1-ethylpropyl)-2-[4-({(1H-imidazol-2-ylmethyl)[(1-methyl-1H-imidazol-2-yl)methyl]amino}methyl)benzyl]-2,8-diazaspiro[4.5]decane-3-carboxylic acid] | negative |
| 12 | – | – | CCC(CC)N1CCC2(CCN(Cc3ccc(CN(Cc4ncc[nH]4)Cc4ncc[nH]4)cc3)C2)CC1 [b, 1-(4-{[8-[1-ethylpropyl]-2,8-diazaspiro[4.5]deca-2-yl)methyl}phenyl]-N,N-bis(1H-imidazol-2-ylmethyl)methaneamine] | – |
| 7 | – | – | CCC(CC)N1CCC2(CC1)C[C@@H](C(N)=O)N(Cc1ccc(CN(Cc3ncc[nH]3)Cc3ncc[nH]3)cc1)C2 [c, (3S)-2-(4-{[bis(1H-imidazol-2-ylmethyl)amino]methyl}benzyl)-8-(1-ethylpropyl)-2,8-diazaspiro[4.5]decane-3-carboxyamide] | – |
| 5 | – | – | O=C(O)c1cc(CN(Cc2ncc[nH]2)Cc2ncc[nH]2)ccc1CN1CCC2(CCN(C3CCCCC3)CC2)C1 [d, 5-{[bis(1H-imidazol-2-ylmethyl)amino]methyl}-2-[(8-cyclohexyl-2,8-diazaspiro[4.5]deca-2-yl)methyl]benzenecarboxylic acid] | – |
| 17 | – | – | CCC(CC)N1CCC2(CC1)CN(Cc1ccc(CN(Cc3ncc[nH]3)Cc3ncc[nH]3)cc1)CC2C(=O)O (centres unmarked) [e, 2-(4-{[bis(1H-imidazol-2-ylmethyl)amino]methyl}benzyl)-8-(1-ethylpropyl)-2,8-diazaspiro[4.5]decane-4-carboxylic acid] | – |
| 6 | – | – | CCC(CC)N1CCC2(CC1)CCN(Cc1ccc(CN(Cc3ncc[nH]3)Cc3ncc[nH]3)cc1)C2C(=O)O (centres unmarked) [f, 2-(4-{[bis(1H-imidazol-2-ylmethyl)amino]methyl}benzyl)-8-(1-ethylpropyl)-2,8-diazaspiro[4.5]decane-1-carboxylic acid] | – |
| 2 | – | – | CC(C)CN1CCC2(CCN(Cc3ccc(CN(Cc4ncc[nH]4)Cc4ncc[nH]4)cc3)C2)CC1C(=O)O (centres unmarked) [g, 2-(4-{[bis(1H-imidazol-2-ylmethyl)amino]methyl}benzyl)-8-isobutyl-2,8-diazaspiro[4.5]decane-7-carboxylic acid] | – |
| 1.2 | – | – | CCC(CC)N1CC2(CCN(Cc3ccc(CN(Cc4ncc[nH]4)Cc4ncc[nH]4)cc3)CC2)CC1C(=O)O (centres unmarked) [h, 8-(4-{[bis(1H-imidazol-2-ylmethyl)amino]methyl}benzyl)-2-(1-ethylpropyl)-2,8-diazaspiro[4.5]decane-3-carboxylic acid] | – |
| 3 | – | – | CCCN(CC)CCCCN(CC(=O)O)Cc1ccc(CN(Cc2ncc[nH]2)Cc2nccn2C)cc1 [i] | – |
| <1 | – | – | CCOC(=O)C1CC2(CCN(Cc3ccc(C(=O)N(Cc4ncc[nH]4)Cc4ncc[nH]4)cc3)CC2)CN1C1CCCCC1 (centres unmarked) [j] | – |
| 14 | – | – | COC(=O)c1cc(CN(Cc2ncc[nH]2)Cc2ncc[nH]2)ccc1CN1CCC2(CCN(Cc3sccc3C)CC2)C1 [k] | – |
| 4 | – | – | O=C(O)Cn1ccnc1CN(Cc1ccc(CN2CCC3(CCN(C4CCCCC4)CC3)C2)cc1)Cc1ncc[nH]1 [l] | – |
| 4 | – | – | CCC(CC)N1CCC2(CCN(CCCn3ccnc3CN(Cc3cccc(CC(=O)O)c3)Cc3ncc[nH]3)C2)CC1 [m] | – |
